Data taken from patent US12617799B2, “Pyrazolopyrimidinone compounds” (Orphagen Pharmaceuticals, Inc., priority 2021, dated 2026).
Where two headings read alike, the source gives them in different places.

Columns and labels:
[1] = tested on: rat Leydig tumor cell line R2C; assay: R2C proliferation assay for SF-1 antagonists (EdU incorporation); format: cell-based; details: read-out: R2C: EC50
Description: SF-1 regulates progenitor cell formation and survival in adult Leydig cells. Anti-proliferative effects of SF-1 antagonists using a SF-1+ rat Leydig tumor cell line, R2C, was investigated. Cell proliferation was measured by detecting DNA incorporation of EdU, a nucleoside analogue that can be fluorescently tagged after cell fixation.
Proliferation of the rat Leydig tumor cell line R2C (ATCC® CCL-97™) was assessed using 5-ethynyl-2′-deoxyuridine (EdU), a nucleoside analogue incorporated during DNA synthesis that can be fluorescently tagged after cell fixation. Cycloheximide, a protein synthesis inhibitor, was used as a positive control for the assay.
R2C cells are maintained according to a protocol provided by the American Type Culture Collection (ATCC). At the time of assay, R2C cells were diluted to 1.0 million cells/mL with culture medium (F12 medium supplemented with 2% FBS and 1% Penicillin-Streptomycin) and 50 uL of cell suspension seeded into each well of 384-well clear bottom plates. The assay plates were incubated in a humidified, 37° C., 6% CO2 atmosphere for 24 hours. Serially diluted SF-1 antagonists, cycloheximide or vehicle (DMSO) were then applied to the R2C cells and incubated in a humidified, 37° C., 6% CO2 atmosphere for two days. EdU (Invitrogen), at a final concentration of 5 μM, was added to the cells and incubated for an additional 16 hours, after which cells were fixed with 10% formalin.
Cells were then washed and permeabilized in 0.5% TritonX-100/PBS solution at RT for 1 hour. EdU incorporation was detected by labeling EdU with 6-FAM azide (Lumiprobe) using a copper (I)-catalyzed Click reaction between an azide and alkyne. The reaction mixture consists of 5 mM ascorbic acid, 1 mM CuSO4, 1 μM 6-FAM azide dissolved in PBS buffer. […] For data normalization, the average fluorescence of DMSO wells was defined as 100%, and average fluorescence of 10 μM cycloheximide wells was defined as 0%. Curve fitting and EC50 determination were performed using the variable slope sigmoidal dose-response analysis.
R2C cells were routinely cultured in R2C culture medium. To assay SF-1 antagonist inhibitory activity, R2C cells were resuspended in the R2C plating medium and plated into a 384 well-clear bottom black plate at 20,000 cells/50 μL/well. […] 10 μL EdU plating solution were then dispensed into each well of assay plate incubated at 37° C., 6% CO2 for two days.
R2C proliferation is measured by detecting the fluorescent labelled EdU. The R2C assay plates were fixed by dispense 60 μL of 10% formalin into each well, and the plates were incubated at room temperature for 1 hour on an orbital shaker. The plates were washed with 80 μL of PBS three times, and cells were permeabilized by treating with 100 μL of PBS-0.5% TritonX-100 at RT for 1 hour on an orbital shaker. The plates were washed with 80 μL of PBS three times, and after the last wash, 25 μL of PBS was dispensed into each well. 25 μL of 2× mounting mix solution was then added into each well of fixed cells, and the plates were incubated at RT for 30 min in the dark on an orbital shaker. The cells were washed with 80 μL of PBS, three times, and after the last wash, 25 μL of PBS was dispensed into each well. […] The cells were washed with 80 μL of PBS, three times, and after the last wash, 50 μL of PBS was dispensed into each well. Assay plates were sealed with aluminum foil, and fluorescence was measured using a Envision microplate reader.
The % of control for the proliferation activity was calculated according to the following equation: % of control=100×(A−C)/(B−C) Equation • A: fluorescence count in the test article-treated R2C cells • B: mean fluorescence count in the vehicle-treated R2C cells • C: mean fluorescence count in the 10 μM cycloheximide-treated R2C cells

human SF-1 = molecular target: T1, human SF-1 (Homo sapiens, UniProt Q13285); assay: SF-1 Luc assay (Gal4DBD-SF-1LBD luciferase reporter in transfected CHO-K1 cells); format: cell-based; details: CHO-K1 cells transfected with GAL4-SF-1 plasmid, 40 hours incubation; read-out: hSF-1-Luc: EC50
T1 construct: expressed in transfected cells; host or cells: CHO-K1 cells (Chinese hamster ovary), transient cotransfection with pG5luc
T1 sequence (Q13285 198-461 limits assumed): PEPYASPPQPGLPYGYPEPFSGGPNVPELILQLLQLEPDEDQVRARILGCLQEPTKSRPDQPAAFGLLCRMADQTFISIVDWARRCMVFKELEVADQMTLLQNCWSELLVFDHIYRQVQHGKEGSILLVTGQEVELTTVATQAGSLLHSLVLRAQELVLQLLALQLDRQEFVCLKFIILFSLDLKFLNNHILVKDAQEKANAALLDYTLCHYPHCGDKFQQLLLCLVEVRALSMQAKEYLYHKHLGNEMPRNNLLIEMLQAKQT
Text: BamHI and XbaI sites introduced by the primers […] (forward) and […] (reverse) were used for subcloning the amplicon into pFA-CMV.
Cells were routinely cultured by splitting them from 1:10 to 1:20. […] Four hours after transfection, cells were trypsinized and suspended to a concentration of 1.6×10^5 cells/ml in supplemented Ham's F-12 media.
Assays: The collected cells were resuspended in the culture medium and plated into a 384 well-white plate (Corning Life Sciences, Acton, MA) at 8,000 cells/50 μL/well.
Measurement of SF-1 Transcriptional Activity: SF-1 transcriptional activity was detected as the intracellular Luc activity using SteadyLite Plus HTS Reporter Gene Assay System. After the measurement of the cell viability, the culture media in the 384 well-plate were completely removed. Then, 30 μL of the Luc substrate solution was added into each well and incubated for 10 min at room temperature. After the incubation, luminescence of each well was measured by a microplate reader.
Calculation of the SF-1 Transcriptional Activity (% of Control): The % of control for the transcriptional activity was calculated according to the following equation: % of control=A/B×100 Equation • A: luminescence count in the test article-treated CHO cells transfected with GAL4-SF-1 plasmid • B: mean luminescence count in the vehicle-treated CHO cells transfected with GAL4-SF-1 plasmid

Compound	EC50 ([1]; R2C cells, EdU incorporation)	EC50 (human SF-1)	EC50 ([1]; R2C)
C[C@H](NC(=O)Cn1cnc2c(Nc3ccc(C(F)(F)F)cc3)nn(C)c2c1=O)C1CCOCC1 [Compound 17, (S)-2-(1-methyl-7-oxo-3-((4-(trifluoromethyl)phenyl)amino)-1,7-dihydro-6H-pyrazolo[4,3-d]pyrimidin-6-yl)-N-(1-(tetrahydro-2H-pyran-4-yl)ethyl)acetamide]	0.2 to 1 µM	< 0.2 µM	
Cn1nc(Nc2ccc(C(F)(F)F)cc2)c2ncn(CC(=O)NC3CCOCC3)c(=O)c21 [Compound 13, 2-(1-methyl-7-oxo-3-((4-(trifluoromethyl)phenyl)amino)-1,7-dihydro-6H-pyrazolo[4,3-d]pyrimidin-6-yl)-N-(tetrahydro-2H-pyran-4-yl)acetamide]	0.2 to 1 µM	< 0.2 µM	
Cn1nc(Nc2ccc(C(F)(F)F)cc2)c2ncn(CC(=O)Nc3ccc(C(C)(C)S(C)(=O)=O)cc3)c(=O)c21 [Compound 12, 2-(1-methyl-7-oxo-3-((4-(trifluoromethyl)phenyl)amino)-1,7-dihydro-6H-pyrazolo[4,3-d]pyrimidin-6-yl)-N-(4-(2-(methylsulfonyl)propan-2-yl)phenyl)acetamide]	< 0.2 µM	< 0.2 µM	
C[C@@H](NC(=O)Cn1cnc2c(Nc3ccc(C(F)(F)F)cc3)nn(C)c2c1=O)C1CCOCC1 [Compound 16, (R)-2-(1-methyl-7-oxo-3-((4-(trifluoromethyl)phenyl)amino)-1,7-dihydro-6H-pyrazolo[4,3-d]pyrimidin-6-yl)-N-(1-(tetrahydro-2H-pyran-4-yl)ethyl)acetamide]	1 to 10 µM	0.2 to 1 µM	
Cn1nc(Nc2ccc(C(F)(F)F)cc2)c2ncn(CC(=O)N[C@H]3CCC[C@@H](OC(F)F)C3)c(=O)c21 (single isomer, unassigned) [Compound 48]		< 0.2 µM	< 0.2 µM
COc1ccc(NC(=O)Cn2cnc3c(Nc4ccc(C(F)(F)F)cc4)nn(C)c3c2=O)cc1F [Compound 11, N-(3-fluoro-4-methoxyphenyl)-2-(1-methyl-7-oxo-3-((4-(trifluoromethyl)phenyl)amino)-1,7-dihydro-6H-pyrazolo[4,3-d]pyrimidin-6-yl)acetamide]	< 0.2 µM	< 0.2 µM	
COc1ccc(NC(=O)Cn2cnc3c(Nc4ccc(Cl)cc4)nn(C)c3c2=O)cc1F [Compound 71, 2-(3-((4-chlorophenyl)amino)-1-methyl-7-oxo-1,7-dihydro-6H-pyrazolo[4,3-d]pyrimidin-6-yl)-N-(3-fluoro-4-methoxyphenyl)acetamide]		< 0.2 µM	< 0.2 µM
Cn1nc(Nc2ccc(C(F)(F)F)cc2)c2ncn(CC(=O)N[C@H]3CCC[C@H](OC(F)F)C3)c(=O)c21 (single isomer, unassigned) [Compound 43]		< 0.2 µM	< 0.2 µM
CC(C)(O)CO[C@H]1CC[C@H](NC(=O)Cn2cnc3c(Nc4ccc(C(F)(F)F)cc4)nn(CC(F)(F)F)c3c2=O)CC1 [Compound 92, N-((1r,4r)-4-(2-hydroxy-2-methylpropoxy)cyclohexyl)-2-(7-oxo-1-(2,2,2-trifluoroethyl)-3-((4-(trifluoromethyl)phenyl)amino)-1,7-dihydro-6H-pyrazolo[4,3-d]pyrimidin-6-yl)acetamide]		0.2 to 1 µM	0.2 to 1 µM
Cn1nc(Nc2ccc(C(F)(F)F)cc2)c2ncn(CC(=O)N[C@H]3CC[C@H](OC(F)F)CC3)c(=O)c21 [Compound 32, N-((1r,4r)-4-(difluoromethoxy)cyclohexyl)-2-(1-methyl-7-oxo-3-((4-(trifluoromethyl)phenyl)amino)-1,7-dihydro-6H-pyrazolo[4,3-d]pyrimidin-6-yl)acetamide]		< 0.2 µM	< 0.2 µM
Cn1nc(Nc2ccc(C(F)(F)F)cc2)c2ncn(CC(=O)N[C@@H]3CCC[C@@H](OC(F)F)C3)c(=O)c21 (single isomer, unassigned) [Compound 44]		< 0.2 µM	< 0.2 µM

Continued, in another order:

EC50 ([1]; R2C cells, EdU incorporation)	EC50 (human SF-1)	Compound	EC50 ([1]; R2C)
0.2 to 1 µM	< 0.2 µM	Cn1nc(Nc2ccc(C(F)(F)F)nc2)c2ncn(CC(=O)N[C@H]3CC[C@H](OC(F)F)CC3)c(=O)c21 [Compound 65, N-((1r,4r)-4-(difluoromethoxy)cyclohexyl)-2-(1-methyl-7-oxo-3-((6-(trifluoromethyl)pyridin-3-yl)amino)-1,7-dihydro-6H-pyrazolo[4,3-d]pyrimidin-6-yl)acetamide]	
< 0.2 µM	< 0.2 µM	C[C@@H](CO)Oc1ccc(NC(=O)Cn2cnc3c(Nc4ccc(C(F)(F)F)cc4)nn(C)c3c2=O)cc1 (single isomer, unassigned) [Compound 26]	
< 0.2 µM	< 0.2 µM	Cn1nc(Nc2ccc(C(F)(F)F)cc2)c2ncn(CC(=O)Nc3ccc(C(C)(C)C(N)=O)cc3)c(=O)c21 [Compound 21, 2-methyl-2-(4-(2-(1-methyl-7-oxo-3-((4-(trifluoromethyl)phenyl)amino)-1,7-dihydro-6H-pyrazolo[4,3-d]pyrimidin-6-yl)acetamido)phenyl)propanamide]	
< 0.2 µM	< 0.2 µM	Cn1nc(Nc2ccc(C(F)(F)F)cc2)c2ncn(CC(=O)N[C@H]3CC[C@H](OCC(C)(C)O)CC3)c(=O)c21 [Compound 24, N-((trans)-4-(2-hydroxy-2-methylpropoxy)cyclohexyl)-2-(1-methyl-7-oxo-3-((4-(trifluoromethyl)phenyl)amino)-1,7-dihydro-6H-pyrazolo[4,3-d]pyrimidin-6-yl)acetamide]	
< 0.2 µM	< 0.2 µM	C[C@H](O)CO[C@H]1CC[C@H](NC(=O)Cn2cnc3c(Nc4ccc(C(F)(F)F)cc4)nn(C)c3c2=O)CC1 [Compound 22, N-((1S,4r)-4-((S)-2-hydroxypropoxy)cyclohexyl)-2-(1-methyl-7-oxo-3-((4-(trifluoromethyl)phenyl)amino)-1,7-dihydro-6H-pyrazolo[4,3-d]pyrimidin-6-yl)acetamide]	
< 0.2 µM	< 0.2 µM	Cn1nc(Nc2ccc(C(F)(F)F)cc2)c2ncn(CC(=O)Nc3ccc(OCC(C)(C)O)cc3)c(=O)c21 [Compound 20, N-(4-(2-hydroxy-2-methylpropoxy)phenyl)-2-(1-methyl-7-oxo-3-((4-(trifluoromethyl)phenyl)amino)-1,7-dihydro-6H-pyrazolo[4,3-d]pyrimidin-6-yl)acetamide]	
< 0.2 µM	< 0.2 µM	Cn1nc(Nc2ccc(C(F)(F)F)cc2)c2ncn(CC(=O)N[C@H]3CC[C@H](OCC4CCOCC4)CC3)c(=O)c21 [Compound 39, 2-(1-methyl-7-oxo-3-((4-(trifluoromethyl)phenyl)amino)-1,7-dihydro-6H-pyrazolo[4,3-d]pyrimidin-6-yl)-N-((1r,4r)-4-((tetrahydro-2H-pyran-4-yl)methoxy)cyclohexyl)acetamide]	
